Activity calls are given as the source filed them. The calls are words filed in the database; no cut-off is given here.
Assays:
[1] = molecular target: Human immunodeficiency virus type 1 reverse transcriptase (Human immunodeficiency virus 1) (UniProt Q72547); experiment: Activity at HIV1 reverse transcriptase assessed as elongation of DNA primer after 60 mins by single nucleotide incorporation assay
[2] = molecular target: Human immunodeficiency virus type 1 reverse transcriptase (Human immunodeficiency virus 1) (UniProt Q72547); experiment: Activity at HIV1 reverse transcriptase assessed as elongation of DNA primer after 60 mins at 500 uM by single nucleotide incorporation assay
[3] = molecular target: Human immunodeficiency virus type 1 reverse transcriptase (Human immunodeficiency virus 1) (UniProt Q72547); experiment: Activity at HIV1 reverse transcriptase assessed as elongation of DNA primer up to 120 mins at 500 uM by single nucleotide incorporation assay
[4] = molecular target: Human immunodeficiency virus type 1 reverse transcriptase (Human immunodeficiency virus 1) (UniProt Q72547); experiment: Activity at HIV1 reverse transcriptase assessed as elongation of DNA primer up to 120 mins at 1 mM by single nucleotide incorporation assay

Activity [1]	Activity [2] [%]	Activity [3] [%]	Activity [4] [%]	Structure (SMILES)
inactive				Nc1ccn([C@@H]2O[C@H](COP(=O)(O)NCCCC(C(=O)O)C(=O)O)C[C@H]2O)c(=O)n1
	54	60	60	Nc1ccn([C@H]2C[C@H](O)[C@@H](COP(=O)(O)NCCCC(C(=O)O)C(=O)O)O2)c(=O)n1
	82			Nc1ncnc2c1ncn2[C@H]1C[C@H](O)[C@@H](COP(=O)(O)N[C@@H](CC(=O)O)C(=O)O)O1

From ChEMBL document CHEMBL1152581, “Delta-di-carboxybutyl phosphoramidate of 2'-deoxycytidine-5'-monophosphate as substrate for DNA polymerization by HIV-1 reverse transcriptase” (Bioorg Med Chem, 2009)
